Laboratory results taken from article PMC10924921, “Mi-2β promotes immune evasion in melanoma by activating EZH2 methylation” (Nature Communications, 2024).

What was measured:
Assay in all cases: biochemical
Parameters in all cases: KINOMEscan active-site competition binding panel (468 kinase assays), per cent of control at 1000 nM
Conditions in all cases: KINOMEscan per cent of control (binding competition); read-out: Percent Control
ASK2 = biological target: T1, ASK2 (Homo sapiens, UniProt O95382)
T1 construct: gene MAP3K6
Description: (§1) Figure S7 / Percent Control

BTK = BTK (Homo sapiens, UniProt Q06187)
Description: as §1

CDK4-cyclinD3 = biological target: T2, CDK4-cyclinD3 (Homo sapiens, UniProt P11802)
T2 construct: cyclinD3
Description: as §1

CDKL2 = CDKL2 (Homo sapiens, UniProt Q92772)
Sequence of CDKL2 (Q92772 whole entry): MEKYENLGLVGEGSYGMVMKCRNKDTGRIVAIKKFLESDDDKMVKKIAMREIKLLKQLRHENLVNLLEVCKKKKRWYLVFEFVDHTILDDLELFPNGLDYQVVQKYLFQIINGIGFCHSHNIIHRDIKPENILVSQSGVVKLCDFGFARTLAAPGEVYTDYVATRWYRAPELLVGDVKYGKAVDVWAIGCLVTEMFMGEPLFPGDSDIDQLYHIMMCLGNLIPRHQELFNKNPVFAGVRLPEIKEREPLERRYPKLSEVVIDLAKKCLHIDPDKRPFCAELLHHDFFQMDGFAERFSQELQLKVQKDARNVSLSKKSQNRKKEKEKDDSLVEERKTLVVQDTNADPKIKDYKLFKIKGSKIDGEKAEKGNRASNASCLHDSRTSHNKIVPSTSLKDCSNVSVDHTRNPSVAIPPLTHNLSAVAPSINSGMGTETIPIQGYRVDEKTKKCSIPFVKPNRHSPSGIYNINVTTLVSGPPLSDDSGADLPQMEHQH
Description: as §1

EGFR(L858R,T790M) = EGFR(L858R,T790M) (Homo sapiens, UniProt P00533, L858R/T790M)
Description: as §1

EPHA3 = EPHA3 (Homo sapiens, UniProt P29320)
Description: as §1

EPHB1 = EPHB1 (Homo sapiens, UniProt P54762)
Description: as §1

ERK2 = biological target: T3, ERK2 (Homo sapiens, UniProt P28482)
T3 construct: gene MAPK1
T3 sequence (P28482 whole entry): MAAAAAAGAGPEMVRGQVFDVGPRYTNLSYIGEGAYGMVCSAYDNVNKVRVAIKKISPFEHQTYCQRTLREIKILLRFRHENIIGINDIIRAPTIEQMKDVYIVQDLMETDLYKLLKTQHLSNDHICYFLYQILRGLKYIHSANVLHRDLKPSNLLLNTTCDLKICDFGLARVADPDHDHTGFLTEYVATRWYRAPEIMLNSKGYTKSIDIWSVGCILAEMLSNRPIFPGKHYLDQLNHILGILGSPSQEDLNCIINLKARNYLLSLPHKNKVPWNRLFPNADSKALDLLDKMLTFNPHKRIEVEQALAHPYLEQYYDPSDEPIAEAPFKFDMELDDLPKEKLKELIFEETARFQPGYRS
Description: as §1

HIPK2 = HIPK2 (Homo sapiens, UniProt Q9H2X6)
Description: as §1

IRAK3 = IRAK3 (Homo sapiens, UniProt Q9Y616)
Description: as §1

KIT(L576P) = KIT(L576P) (Homo sapiens, UniProt P10721, L576P)
Description: as §1

MEK2 = biological target: T4, MEK2 (Homo sapiens, UniProt P36507)
T4 construct: gene MAP2K2
T4 sequence (P36507 whole entry): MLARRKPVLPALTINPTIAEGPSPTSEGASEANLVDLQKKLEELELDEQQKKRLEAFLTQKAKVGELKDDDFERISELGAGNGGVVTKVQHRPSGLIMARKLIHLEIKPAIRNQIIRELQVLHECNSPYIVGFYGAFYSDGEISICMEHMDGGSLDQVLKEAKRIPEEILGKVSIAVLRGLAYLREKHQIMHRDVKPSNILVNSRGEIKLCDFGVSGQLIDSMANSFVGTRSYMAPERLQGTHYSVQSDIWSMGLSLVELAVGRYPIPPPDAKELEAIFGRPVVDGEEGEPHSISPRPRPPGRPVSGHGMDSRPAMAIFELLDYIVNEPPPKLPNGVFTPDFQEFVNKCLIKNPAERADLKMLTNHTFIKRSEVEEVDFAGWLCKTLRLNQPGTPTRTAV
Description: as §1

MET(M1250T) = MET(M1250T) (Homo sapiens, UniProt P08581, M1250T)
Sequence of MET(M1250T) (P08581 whole entry M1250T): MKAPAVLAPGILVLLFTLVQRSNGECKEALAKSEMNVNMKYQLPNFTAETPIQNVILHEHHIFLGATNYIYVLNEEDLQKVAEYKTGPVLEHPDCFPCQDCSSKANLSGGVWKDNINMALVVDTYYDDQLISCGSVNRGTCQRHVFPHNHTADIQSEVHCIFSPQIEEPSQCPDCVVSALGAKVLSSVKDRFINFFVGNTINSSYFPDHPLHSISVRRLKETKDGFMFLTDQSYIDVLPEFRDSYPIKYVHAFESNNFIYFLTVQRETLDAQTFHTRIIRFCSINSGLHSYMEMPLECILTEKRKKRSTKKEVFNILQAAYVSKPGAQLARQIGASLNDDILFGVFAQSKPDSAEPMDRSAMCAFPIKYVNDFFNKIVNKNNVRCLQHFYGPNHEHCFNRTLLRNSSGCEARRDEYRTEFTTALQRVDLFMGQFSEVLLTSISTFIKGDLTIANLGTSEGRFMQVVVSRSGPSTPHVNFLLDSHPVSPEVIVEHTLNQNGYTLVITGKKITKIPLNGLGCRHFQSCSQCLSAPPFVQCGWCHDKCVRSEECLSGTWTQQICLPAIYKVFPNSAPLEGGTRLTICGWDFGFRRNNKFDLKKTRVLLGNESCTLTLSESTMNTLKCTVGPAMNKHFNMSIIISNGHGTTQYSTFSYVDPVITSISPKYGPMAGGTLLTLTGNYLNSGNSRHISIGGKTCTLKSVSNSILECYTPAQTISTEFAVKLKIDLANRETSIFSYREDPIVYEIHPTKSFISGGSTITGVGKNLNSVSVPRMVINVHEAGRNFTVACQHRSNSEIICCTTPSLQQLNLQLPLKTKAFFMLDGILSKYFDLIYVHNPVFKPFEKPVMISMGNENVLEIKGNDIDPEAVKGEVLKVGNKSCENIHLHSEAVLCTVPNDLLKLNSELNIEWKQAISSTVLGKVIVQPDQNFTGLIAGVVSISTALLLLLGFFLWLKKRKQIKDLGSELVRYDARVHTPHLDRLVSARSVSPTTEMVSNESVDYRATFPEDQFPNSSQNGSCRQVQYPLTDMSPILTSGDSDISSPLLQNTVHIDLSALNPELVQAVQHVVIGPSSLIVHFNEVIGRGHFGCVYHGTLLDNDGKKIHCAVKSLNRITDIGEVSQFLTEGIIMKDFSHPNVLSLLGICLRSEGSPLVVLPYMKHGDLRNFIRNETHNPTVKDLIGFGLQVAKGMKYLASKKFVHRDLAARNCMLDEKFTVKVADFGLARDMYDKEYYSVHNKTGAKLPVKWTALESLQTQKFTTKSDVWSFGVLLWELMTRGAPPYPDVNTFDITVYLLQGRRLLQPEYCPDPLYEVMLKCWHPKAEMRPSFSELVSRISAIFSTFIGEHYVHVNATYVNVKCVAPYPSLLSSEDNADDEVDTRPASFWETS
Description: as §1

MET(Y1235D) = MET(Y1235D) (Homo sapiens, UniProt P08581, Y1235D)
Description: as §1

NIK = biological target: T5, NIK (Homo sapiens, UniProt Q99558)
T5 construct: gene MAP3K14
Description: as §1

PHKG1 = PHKG1 (Homo sapiens, UniProt Q16816)
Description: as §1

PIK3CA(M1043I) = PIK3CA(M1043I) (Homo sapiens, UniProt P42336, M1043I)
Description: as §1

PIK3CG = PIK3CG (Homo sapiens, UniProt P48736)
Sequence of PIK3CG (P48736 whole entry): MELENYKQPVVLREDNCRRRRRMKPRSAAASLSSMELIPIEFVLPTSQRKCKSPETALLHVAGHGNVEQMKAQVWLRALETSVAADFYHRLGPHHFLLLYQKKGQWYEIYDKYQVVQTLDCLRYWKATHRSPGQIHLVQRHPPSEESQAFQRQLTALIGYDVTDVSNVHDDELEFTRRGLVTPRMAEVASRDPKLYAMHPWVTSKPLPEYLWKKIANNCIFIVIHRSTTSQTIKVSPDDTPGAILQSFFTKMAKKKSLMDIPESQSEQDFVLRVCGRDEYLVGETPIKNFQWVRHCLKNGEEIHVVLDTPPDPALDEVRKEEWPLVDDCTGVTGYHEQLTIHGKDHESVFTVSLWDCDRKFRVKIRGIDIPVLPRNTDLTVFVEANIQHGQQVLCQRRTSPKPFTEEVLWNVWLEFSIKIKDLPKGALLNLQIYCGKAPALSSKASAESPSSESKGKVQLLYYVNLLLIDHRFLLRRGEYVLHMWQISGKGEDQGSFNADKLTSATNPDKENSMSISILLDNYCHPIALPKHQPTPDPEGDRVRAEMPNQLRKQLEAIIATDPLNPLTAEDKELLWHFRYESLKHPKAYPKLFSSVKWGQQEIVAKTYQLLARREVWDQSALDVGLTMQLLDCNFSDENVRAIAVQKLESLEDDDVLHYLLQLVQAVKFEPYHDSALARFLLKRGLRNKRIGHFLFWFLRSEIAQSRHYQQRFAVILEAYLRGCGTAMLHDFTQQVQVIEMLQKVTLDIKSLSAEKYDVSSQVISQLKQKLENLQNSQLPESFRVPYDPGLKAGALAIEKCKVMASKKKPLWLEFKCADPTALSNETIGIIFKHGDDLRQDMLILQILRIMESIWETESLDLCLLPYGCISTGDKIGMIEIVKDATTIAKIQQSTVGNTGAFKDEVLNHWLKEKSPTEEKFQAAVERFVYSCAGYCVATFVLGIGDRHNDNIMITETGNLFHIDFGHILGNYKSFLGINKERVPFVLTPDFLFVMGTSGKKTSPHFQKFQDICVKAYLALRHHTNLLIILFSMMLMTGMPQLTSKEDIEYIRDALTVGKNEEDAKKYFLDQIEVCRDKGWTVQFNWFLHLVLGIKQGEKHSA
Description: as §1

PIM3 = PIM3 (Homo sapiens, UniProt Q86V86)
Description: as §1

PRP4 = biological target: T6, PRP4 (Homo sapiens, UniProt Q13523)
T6 construct: gene PRPF4B
T6 sequence (Q13523 whole entry): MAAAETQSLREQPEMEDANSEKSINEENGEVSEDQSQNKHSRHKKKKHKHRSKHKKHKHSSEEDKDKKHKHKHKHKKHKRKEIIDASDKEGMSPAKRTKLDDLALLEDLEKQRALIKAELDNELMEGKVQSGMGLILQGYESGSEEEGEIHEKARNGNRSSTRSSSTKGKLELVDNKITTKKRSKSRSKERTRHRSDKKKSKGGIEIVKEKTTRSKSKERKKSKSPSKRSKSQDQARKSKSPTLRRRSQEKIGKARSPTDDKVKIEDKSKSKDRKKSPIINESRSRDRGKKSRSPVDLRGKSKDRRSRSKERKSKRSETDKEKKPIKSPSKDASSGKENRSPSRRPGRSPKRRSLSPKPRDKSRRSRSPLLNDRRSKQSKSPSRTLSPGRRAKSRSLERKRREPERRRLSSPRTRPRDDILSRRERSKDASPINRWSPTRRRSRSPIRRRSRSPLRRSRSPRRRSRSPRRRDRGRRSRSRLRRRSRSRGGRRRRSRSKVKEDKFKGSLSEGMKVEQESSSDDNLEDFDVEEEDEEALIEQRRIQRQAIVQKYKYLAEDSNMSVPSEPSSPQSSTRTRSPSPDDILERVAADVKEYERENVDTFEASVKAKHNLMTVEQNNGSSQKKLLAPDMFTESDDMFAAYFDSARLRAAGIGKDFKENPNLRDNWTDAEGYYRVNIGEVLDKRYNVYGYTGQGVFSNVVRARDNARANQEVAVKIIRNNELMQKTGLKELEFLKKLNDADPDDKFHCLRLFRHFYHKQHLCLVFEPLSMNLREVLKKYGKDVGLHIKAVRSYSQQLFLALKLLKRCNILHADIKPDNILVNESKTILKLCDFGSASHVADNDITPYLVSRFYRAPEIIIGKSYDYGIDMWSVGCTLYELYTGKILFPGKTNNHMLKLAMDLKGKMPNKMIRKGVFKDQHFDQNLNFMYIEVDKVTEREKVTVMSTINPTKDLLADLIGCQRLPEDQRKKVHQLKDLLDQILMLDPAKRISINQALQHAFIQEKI
Description: as §1

[1] = biological target: T7, RPS6KA5(Kin.Dom.1-N-terminal) (Homo sapiens, UniProt O75582)
T7 construct: Kin.Dom.1-N-terminal
Description: as §1

TNK2 = TNK2 (Homo sapiens, UniProt Q07912)
Description: as §1

[2] = biological target: T8, TYK2(JH1domain-catalytic) (Homo sapiens, UniProt P29597)
T8 construct: JH1domain-catalytic
Description: as §1

WNK4 = WNK4 (Homo sapiens, UniProt Q96J92)
Description: as §1

Structure (SMILES): Cn1c(=O)[nH]c2ccc(-c3cccc(C(=O)NC4CCn5ccnc5C4)c3)cc21 (stereo not drawn) [Z36-MP5]
- remaining binding at 1 µM (ASK2): 93%
- remaining binding at 1 µM (BTK): 89%
- remaining binding at 1 µM (CDK4-cyclinD3): 54%
- remaining binding at 1 µM (CDKL2): 68%
- remaining binding at 1 µM (EGFR(L858R,T790M)): 39%
- remaining binding at 1 µM (EPHA3): 93%
- remaining binding at 1 µM (EPHB1): 89%
- remaining binding at 1 µM (ERK2): 81%
- remaining binding at 1 µM (HIPK2): 64%
- remaining binding at 1 µM (IRAK3): 99%
- remaining binding at 1 µM (KIT(L576P)): 74%
- remaining binding at 1 µM (MEK2): 58%
- remaining binding at 1 µM (MET(M1250T)): 88%
- remaining binding at 1 µM (MET(Y1235D)): 93%
- remaining binding at 1 µM (NIK): 46%
- remaining binding at 1 µM (PHKG1): 90%
- remaining binding at 1 µM (PIK3CA(M1043I)): 83%
- remaining binding at 1 µM (PIK3CG): 83%
- remaining binding at 1 µM (PIM3): 85%
- remaining binding at 1 µM (PRP4): 84%
- remaining binding at 1 µM [1]: 75%
- remaining binding at 1 µM (TNK2): 41%
- remaining binding at 1 µM [2]: 64%
- remaining binding at 1 µM (WNK4): 81%
